Assay results: patent publication US9302999B2, “Substituted triazoles as herbicides” (E. I. DU PONT DE NEMOURS AND COMPANY, priority 2012, dated 2016)
Like-named read-outs stand apart in the source and are kept apart here.

Experiments:
Type in all cases: in vivo
[1] = test system: foxtail, giant (giant foxtail, Setaria faberii); test: Test C pre-/postemergence: foxtail, giant
Summary of the method: (§1)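 Visual injury scored 0–100 (100 = complete control) against untreated controls after 13–15 greenhouse days. Surfactant-containing solvent formulations applied either to soil after sowing (loam/sand) or over 1- to 4-leaf plants, 2–18 cm tall.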

[2] = test system: nutsedge, yellow (yellow nutsedge, Cyperus esculentus); test: Test C pre-/postemergence: nutsedge, yellow
Summary of the method: as §1

[3] = test system: wheat (Triticum aestivum); test: Test A pre-/postemergence: wheat; settings: for plant injury at 125 g/ha / plant injury at 500 g/ha: Triticum aestivum, 240 h
Summary of the method: (§2)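 Pre: directed soil spray after planting in loam + sand. Post: same formulation (non-phytotoxic solvent + surfactant) on 1–2-leaf plants, 2–10 cm. Greenhouse ~10 d; visual injury 0–100 vs untreated.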

[4] = test system: winter wheat (Triticum aestivum); test: Test C pre-/postemergence: winter wheat
Summary of the method: as §1

[5] = test system: pigweed (Amaranthus retroflexus); test: Test A pre-/postemergence: pigweed; settings: for pest or weed control at 125 g/ha / pest or weed control at 500 g/ha: Amaranthus retroflexus, 240 h
Summary of the method: as §2

corn (Zea mays) = test: Test A pre-/postemergence: corn
Summary of the method: as §2

[6] = test system: morningglory (Ipomoea spp.); test: Test A pre-/postemergence: morningglory; settings: for pest or weed control at 125 g/ha / pest or weed control at 500 g/ha: Ipomoea, 240 h
Summary of the method: as §2

[7] = test system: ryegrass, Italian (Italian ryegrass, Lolium multiflorum); test: Test C pre-/postemergence: ryegrass, Italian
Summary of the method: as §1

[8] = test system: barnyardgrass (Echinochloa crus-galli); test: Test A pre-/postemergence: barnyardgrass; settings: for pest or weed control at 125 g/ha / pest or weed control at 500 g/ha: Echinochloa crus-galli, 240 h
Summary of the method: as §2

[9] = test system: blackgrass (Alopecurus myosuroides); test: Test C pre-/postemergence: blackgrass
Summary of the method: as §1

[10] = test system: morningglory (Ipomoea coccinea); test: Test C pre-/postemergence: morningglory
Summary of the method: as §1

[11] = Postemergence, 31 g ai/ha, scale 0 to 100 (0 no effect, 100 complete control)
[12] = Postemergence, 62 g ai/ha, scale 0 to 100 (0 no effect, 100 complete control)
[13] = Postemergence, 125 g ai/ha, scale 0 to 100, 0 no effect, 100 complete control
[14] = Postemergence, 250 g ai/ha, scale 0 to 100
[15] = Preemergence, 31 g ai/ha, scale of 0 to 100, 0 is no effect, 100 is complete control
[16] = Preemergence, 62 g ai/ha, scale of 0 to 100, 0 is no effect, 100 is complete control
[17] = Preemergence, 125 g ai/ha, scale 0 to 100, 0 no effect, 100 complete control
[18] = Preemergence, 250 g ai/ha, scale 0 to 100, 0 no effect, 100 complete control
[19] = Postemergence, 125 g ai/ha, 0 to 100 scale, 0 is no effect, 100 is complete control
[20] = Postemergence, 500 g ai/ha, visual rating on 0 to 100 scale (0 no effect, 100 complete control), approximately ten days
[21] = Preemergence, 125 g ai/ha, 0 to 100 scale where 0 is no effect and 100 is complete control
[22] = Preemergence, 500 g ai/ha, 0 to 100 scale (0 no effect, 100 complete control)

SMILES: Cc1nn(-c2ccc(C(F)(F)F)cc2)nc1Cc1ccnc(C(F)(F)F)c1 [Compound 47, 4-[[5-methyl-2-[4-(trifluoromethyl)phenyl]-2H-1,2,3-triazol-4-yl]methyl]-2-(trifluoromethyl)pyridine]
- Plant response rating, Foxtail, Giant [1, 11]: 65
- Plant response rating, Foxtail, Giant [1, 12]: 65
- Plant response rating, Foxtail, Giant [1, 13]: 80
- Plant response rating, Foxtail, Giant [1, 14]: 98
- Plant response rating, Foxtail, Giant [1, 15]: 95
- Plant response rating, Foxtail, Giant [1, 16]: 100
- Plant response rating, Foxtail, Giant [1, 17]: 100
- Plant response rating, Foxtail, Giant [1, 18]: 100
- Plant response rating, Nutsedge, Yellow [2, 11]: 0
- Plant response rating, Nutsedge, Yellow [2, 12]: 0
- Plant response rating, Nutsedge, Yellow [2, 13]: 0
- Plant response rating, Nutsedge, Yellow [2, 14]: 0
- Plant response rating, Nutsedge, Yellow [2, 15]: 0
- Plant response rating, Nutsedge, Yellow [2, 16]: 0
- Plant response rating, Nutsedge, Yellow [2, 17]: 0
- Plant response rating, Nutsedge, Yellow [2, 18]: 0
- plant injury at 125 g/ha ([3]; post-emergence, Postemergence, 125 g ai/ha, 0 to 100 scale, 0 is no effect, 100 is complete control, read-out: Wheat plant response rating): 30%
- plant injury at 500 g/ha ([3]; post-emergence, Postemergence, 500 g ai/ha, visual rating on 0 to 100 scale (0 no effect, 100 complete control), approximately ten days, read-out: Wheat plant response rating): 50%
- plant injury at 125 g/ha ([3]; pre-emergence, Preemergence, 125 g ai/ha, 0 to 100 scale (0 no effect, 100 complete control), read-out: Plant response rating, Wheat): 30%
- plant injury at 500 g/ha ([3]; pre-emergence, Preemergence, 500 g ai/ha, 0 to 100 scale, 0 is no effect, 100 is complete control, read-out: Plant response rating, Wheat): 40%
- Plant response rating, Wheat [4, 11]: 15
- Plant response rating, Wheat [4, 12]: 35
- Plant response rating, Wheat [4, 13]: 45
- Plant response rating, Wheat [4, 14]: 50
- Plant response rating, Wheat [4, 15]: 0
- Plant response rating, Wheat [4, 16]: 5
- Plant response rating, Wheat [4, 17]: 35
- Plant response rating, Wheat [4, 18]: 40
- pest or weed control at 125 g/ha ([5]; post-emergence, Postemergence, 125 g ai/ha, 0 to 100 scale, 0 is no effect, 100 is complete control, read-out: Pigweed plant response rating): 100%
- pest or weed control at 500 g/ha ([5]; post-emergence, Postemergence, 500 g ai/ha, visual rating on 0 to 100 scale (0 no effect, 100 complete control), approximately ten days, read-out: Pigweed plant response rating): 100%
- pest or weed control at 125 g/ha ([5]; pre-emergence, Preemergence, 125 g ai/ha, 0 to 100 scale (0 no effect, 100 complete control), read-out: Plant response rating, Pigweed): 100%
- pest or weed control at 500 g/ha ([5]; pre-emergence, Preemergence, 500 g ai/ha, 0 to 100 scale, 0 is no effect, 100 is complete control, read-out: Plant response rating, Pigweed): 100%
- plant injury at 125 g/ha (corn (Zea mays); Zea mays, post-emergence, 240 h, Postemergence, 125 g ai/ha, 0 to 100 scale, 0 is no effect, 100 is complete control, read-out: Corn plant response rating): 20%
- plant injury at 500 g/ha (corn (Zea mays); Zea mays, post-emergence, 240 h, Postemergence, 500 g ai/ha, visual rating on 0 to 100 scale (0 no effect, 100 complete control), approximately ten days, read-out: Corn plant response rating): 40%
- Corn plant response rating (crop injury, 0 = no effect, 100 = complete kill) at 125 g/ha (corn (Zea mays); Zea mays, pre-emergence, 240 h, Preemergence, 125 g ai/ha, 0 to 100 scale (0 no effect, 100 complete control)): 20%
- Corn plant response rating (crop injury, 0 = no effect, 100 = complete kill) at 500 g/ha (corn (Zea mays); Zea mays, pre-emergence, 240 h, Preemergence, 500 g ai/ha, 0 to 100 scale, 0 is no effect, 100 is complete control): 30%
- pest or weed control at 125 g/ha ([6]; post-emergence, Postemergence, 125 g ai/ha, 0 to 100 scale, 0 is no effect, 100 is complete control, read-out: Morningglory plant response rating): 90%
- pest or weed control at 500 g/ha ([6]; post-emergence, Postemergence, 500 g ai/ha, visual rating on 0 to 100 scale (0 no effect, 100 complete control), approximately ten days, read-out: Morningglory plant response rating): 90%
- pest or weed control at 125 g/ha ([6]; pre-emergence, Preemergence, 125 g ai/ha, 0 to 100 scale (0 no effect, 100 complete control), read-out: Plant response rating, Morningglory): 70%
- pest or weed control at 500 g/ha ([6]; pre-emergence, Preemergence, 500 g ai/ha, 0 to 100 scale, 0 is no effect, 100 is complete control, read-out: Plant response rating, Morningglory): 80%
- Plant response rating, Ryegrass, Italian [7, 11]: 35
- Plant response rating, Ryegrass, Italian [7, 12]: 65
- Plant response rating, Ryegrass, Italian [7, 13]: 75
- Plant response rating, Ryegrass, Italian [7, 14]: 85
- Plant response rating, Ryegrass, Italian [7, 15]: 35
- Plant response rating, Ryegrass, Italian [7, 16]: 50
- Plant response rating, Ryegrass, Italian [7, 17]: 90
- Plant response rating, Ryegrass, Italian [7, 18]: 98
- pest or weed control at 125 g/ha ([8]; post-emergence, Postemergence, 125 g ai/ha, 0 to 100 scale, 0 is no effect, 100 is complete control, read-out: Barnyardgrass plant response rating): 90%
- pest or weed control at 500 g/ha ([8]; post-emergence, Postemergence, 500 g ai/ha, visual rating on 0 to 100 scale (0 no effect, 100 complete control), approximately ten days, read-out: Barnyardgrass plant response rating): 90%
- pest or weed control at 125 g/ha ([8]; pre-emergence, Preemergence, 125 g ai/ha, 0 to 100 scale (0 no effect, 100 complete control), read-out: Plant response rating, Barnyardgrass): 90%
- pest or weed control at 500 g/ha ([8]; pre-emergence, Preemergence, 500 g ai/ha, 0 to 100 scale, 0 is no effect, 100 is complete control, read-out: Plant response rating, Barnyardgrass): 100%
- Plant response rating, Blackgrass [9, 11]: 40
- Plant response rating, Blackgrass [9, 12]: 45
- Plant response rating, Blackgrass [9, 13]: 60
- Plant response rating, Blackgrass [9, 14]: 90
- Plant response rating, Blackgrass [9, 15]: 90
- Plant response rating, Blackgrass ([9]; Preemergence, 62 g ai/ha, scale 0 to 100, 0 no effect, 100 complete control): 98
- Plant response rating, Blackgrass [9, 17]: 100
- Plant response rating, Blackgrass [9, 18]: 100
- Plant response rating, Morningglory [10, 11]: 75
- Plant response rating, Morningglory [10, 12]: 95
- Plant response rating, Morningglory [10, 13]: 100
- Plant response rating, Morningglory [10, 14]: 100
- Plant response rating, Morningglory [10, 15]: 5
- Plant response rating, Morningglory [10, 16]: 20
- Plant response rating, Morningglory [10, 17]: 50
- Plant response rating, Morningglory [10, 18]: 65

SMILES: Fc1ccc(-n2nc(Cc3ccnc(C(F)(F)F)c3)c(OCC(F)(F)F)n2)cc1 [Compound 142]
- Plant response rating, Foxtail, Giant [1, 11]: 20
- Plant response rating, Foxtail, Giant [1, 12]: 75
- Plant response rating, Foxtail, Giant [1, 13]: 80
- Plant response rating, Foxtail, Giant [1, 14]: 90
- Plant response rating, Foxtail, Giant [1, 15]: 100
- Plant response rating, Foxtail, Giant [1, 16]: 100
- Plant response rating, Foxtail, Giant [1, 17]: 100
- Plant response rating, Foxtail, Giant [1, 18]: 100
- Plant response rating, Nutsedge, Yellow [2, 11]: 5
- Plant response rating, Nutsedge, Yellow [2, 12]: 5
- Plant response rating, Nutsedge, Yellow [2, 13]: 15
- Plant response rating, Nutsedge, Yellow [2, 14]: 20
- Plant response rating, Nutsedge, Yellow [2, 15]: 0
- Plant response rating, Nutsedge, Yellow [2, 17]: 0
- Plant response rating, Nutsedge, Yellow [2, 18]: 0
- Plant response rating, Wheat [3, 19]: 80
- Wheat plant response rating [3, 20]: 80
- Plant response rating, Wheat [3, 21]: 70
- Plant response rating, Wheat [3, 22]: 80
- Plant response rating, Wheat [4, 11]: 15
- Plant response rating, Wheat [4, 12]: 25
- Plant response rating, Wheat [4, 13]: 40
- Plant response rating, Wheat [4, 14]: 45
- Plant response rating, Wheat [4, 16]: 5
- Plant response rating, Wheat [4, 17]: 35
- Plant response rating, Wheat [4, 18]: 50
- Plant response rating, Pigweed [5, 19]: 100
- Pigweed plant response rating [5, 20]: 100
- Plant response rating, Pigweed [5, 21]: 100
- Plant response rating, Pigweed [5, 22]: 100
- Corn plant response rating (corn (Zea mays); [19]): 50
- Corn plant response rating (corn (Zea mays); [20]): 80
- Plant response rating, Corn (corn (Zea mays); [21]): 30
- Plant response rating, Corn (corn (Zea mays); [22]): 80
- Plant response rating, Morningglory [6, 19]: 100
- Morningglory plant response rating [6, 20]: 100
- Plant response rating, Morningglory [6, 21]: 50
- Plant response rating, Morningglory [6, 22]: 80
- Plant response rating, Ryegrass, Italian [7, 11]: 10
- Plant response rating, Ryegrass, Italian [7, 12]: 40
- Plant response rating, Ryegrass, Italian [7, 13]: 50
- Plant response rating, Ryegrass, Italian [7, 14]: 50
- Plant response rating, Ryegrass, Italian [7, 15]: 30
- Plant response rating, Ryegrass, Italian [7, 16]: 90
- Plant response rating, Ryegrass, Italian [7, 17]: 90
- Plant response rating, Ryegrass, Italian [7, 18]: 90
- Barnyardgrass plant response rating [8, 19]: 100
- Barnyardgrass plant response rating [8, 20]: 100
- Plant response rating, Barnyardgrass [8, 21]: 100
- Plant response rating, Barnyardgrass [8, 22]: 100
- Plant response rating, Blackgrass [9, 11]: 55
- Plant response rating, Blackgrass [9, 12]: 60
- Plant response rating, Blackgrass [9, 13]: 80
- Plant response rating, Blackgrass [9, 14]: 90
- Plant response rating, Blackgrass [9, 15]: 90
- Plant response rating, Blackgrass [9, 16]: 90
- Plant response rating, Blackgrass [9, 17]: 90
- Plant response rating, Blackgrass [9, 18]: 90
- Plant response rating, Morningglory [10, 11]: 60
- Plant response rating, Morningglory [10, 13]: 60
- Plant response rating, Morningglory [10, 14]: 80
- Plant response rating, Morningglory [10, 16]: 35
